PubChem BioAssay AID248 (DTP/NCI, 2004)
Where “and” joins values, the source holds several entries; their conditions need not be identical. Equal entries are not always repeated. Inconclusive results and toxic doses are left out. Rule as the data show it: active = T/C of 150% or more; inactive = T/C below 125%.

Tested on: L1210 leukemia ip in BDF1 mice, survival T/C
Experiment: NCI In Vivo Anticancer Drug Screen. Data for tumor model L1210 Leukemia (intraperitoneal) in B6D2F1 (BDF1) mice
Settings: endpoint: mean survival time, higher = longer survival
Procedure, shortened: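 Ratio derived from survival: compound-dosed mice over vehicle-dosed mice, all bearing a transplantable tumor.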

[1] = dose: 100.0 mg/kg/injection, schedule: Q04DX003 (ip), vehicle: saline with Tween-80
[2] = dose: 200.0 mg/kg/injection, schedule: Q04DX003 (ip), vehicle: saline with Tween-80
[3] = dose: 100.0 mg/kg/injection, schedule: Q04DX003 (ip), vehicle: Klucel (hydroxypropylcellulose) (HPC)
[4] = dose: 200.0 mg/kg/injection, schedule: Q04DX003 (ip), vehicle: Klucel (hydroxypropylcellulose) (HPC)
[5] = dose: 400.0 mg/kg/injection, schedule: Q04DX003 (ip), vehicle: Klucel (hydroxypropylcellulose) (HPC)

Measured: T/C

O=C(C=C(C(F)(F)F)C(F)(F)F)c1c2ccccc2cc2ccccc12
inactive: dose: 0.18 mg/kg/injection, schedule: Q01DX009 (ip), vehicle: DMSO 87 % of control | dose: 0.37 mg/kg/injection, schedule: Q01DX009 (ip), vehicle: DMSO 99 % of control | dose: 0.75 mg/kg/injection, schedule: Q01DX009 (ip), vehicle: DMSO 97 % of control | dose: 1.5 mg/kg/injection, schedule: Q01DX009 (ip), vehicle: DMSO 93 % of control | dose: 3.0 mg/kg/injection, schedule: Q01DX009 (ip), vehicle: DMSO 93 % of control and 88 % of control | dose: 3.0 mg/kg/injection, schedule: Q04DX003 (ip), vehicle: DMSO 100 % of control | dose: 6.0 mg/kg/injection, schedule: Q04DX003 (ip), vehicle: DMSO 98 % of control | dose: 12.0 mg/kg/injection, schedule: Q04DX003 (ip), vehicle: DMSO 97 % of control | dose: 12.5 mg/kg/injection, schedule: Q04DX003 (ip), vehicle: DMSO 93 % of control

CCOC(=O)c1c(C)nc(C)c(C(=O)OCC)c1-c1ccc(N(C)C)cc1
inactive: dose: 25.6 mg/kg/injection, schedule: Q04DX002 (ip), vehicle: saline with Tween-80 101 % of control | dose: 64.0 mg/kg/injection, schedule: Q04DX002 (ip), vehicle: saline with Tween-80 97 % of control

[N-]=[N+]=NCC1OC(n2cnc3c(N)ncnc32)C(O)C1O (centres undefined)
inactive: dose: 100.0 mg/kg/injection, schedule: Q01DX001 (ip), vehicle: saline 95 % of control | dose: 200.0 mg/kg/injection, schedule: Q01DX001 (ip), vehicle: saline 103 % of control | dose: 400.0 mg/kg/injection, schedule: Q01DX001 (ip), vehicle: saline 103 % of control

COc1cc(CC2c3cc(OC)c(OC)cc3CCN2C)c(Oc2cc3c(cc2OC)-c2c(OC)c(OC)c(OC)c4c2C(C3)N(C)CC4)cc1OC (centres undefined)
inactive: [1] 97 % of control | [2] 97 % of control

CCOC(=O)C(CCN(C)Cc1ccccc1)C(=O)OCC
inactive: dose: 100.0 mg/kg/injection, schedule: Q01DX009 (ip), vehicle: Klucel (hydroxypropylcellulose) (HPC) 97 % of control | dose: 200.0 mg/kg/injection, schedule: Q01DX009 (ip), vehicle: Klucel (hydroxypropylcellulose) (HPC) 100 % of control | dose: 400.0 mg/kg/injection, schedule: Q01DX009 (ip), vehicle: Klucel (hydroxypropylcellulose) (HPC) 106 % of control

O=C1C(Cl)=C(Cl)C(=O)N1CCCCCCN1C(=O)C(Cl)=C(Cl)C1=O
inactive: [3] 92 % of control | [4] 87 % of control | [5] 92 % of control

CC(C)(C)S(=O)CCO (centres undefined)
inactive: dose: 100.0 mg/kg/injection, schedule: Q04DX002 (ip), vehicle: saline 109 % of control | dose: 200.0 mg/kg/injection, schedule: Q04DX002 (ip), vehicle: saline 103 % of control | dose: 400.0 mg/kg/injection, schedule: Q04DX002 (ip), vehicle: saline 103 % of control

NC(=S)N/N=C/c1cc(Cl)ccc1O
inactive: dose: 100.0 mg/kg/injection, schedule: Q01DX001 (ip), vehicle: carboxymethylcellulose (CMC) 94 % of control | dose: 200.0 mg/kg/injection, schedule: Q01DX001 (ip), vehicle: carboxymethylcellulose (CMC) 100 % of control | dose: 400.0 mg/kg/injection, schedule: Q01DX001 (ip), vehicle: carboxymethylcellulose (CMC) 96 % of control

Cc1ccc(N=C(N)NC#N)cc1C
inactive: [1] 102 % of control | [2] 102 % of control | dose: 400.0 mg/kg/injection, schedule: Q04DX003 (ip), vehicle: saline with Tween-80 102 % of control

CCc1ccc(/C=C/c2ccc(O)c3ncccc23)[n+](C)c1
inactive: dose: 2.0 mg/kg/injection, schedule: Q01DX015 (ip), vehicle: carboxymethylcellulose (CMC) 115 % of control | dose: 2.0 mg/kg/injection, schedule: Q03HX008 (ip), vehicle: other 94 % of control | dose: 2.0 mg/kg/injection, schedule: Q03HX016 (ip), vehicle: other 90 % of control | dose: 2.0 mg/kg/injection, schedule: Q03HX024 (ip), vehicle: other 98 % of control | dose: 4.0 mg/kg/injection, schedule: Q01DX009 (ip), vehicle: carboxymethylcellulose (CMC) 120 % of control | dose: 4.0 mg/kg/injection, schedule: Q01DX009 (ip), vehicle: other 97 % of control | dose: 4.0 mg/kg/injection, schedule: Q01DX015 (ip), vehicle: carboxymethylcellulose (CMC) 108 % of control | dose: 4.0 mg/kg/injection, schedule: Q03HX008 (ip), vehicle: other 98 % of control | dose: 4.0 mg/kg/injection, schedule: Q03HX016 (ip), vehicle: other 96 % of control | dose: 4.0 mg/kg/injection, schedule: Q03HX024 (ip), vehicle: other 97 % of control | dose: 5.0 mg/kg/injection, schedule: Q01DX001 (ip), vehicle: carboxymethylcellulose (CMC) 94 % of control | dose: 6.25 mg/kg/injection, schedule: Q01DX009 (ip), vehicle: saline 108 % of control | dose: 6.25 mg/kg/injection, schedule: Q04DX003 (ip), vehicle: saline 107 % of control | dose: 8.0 mg/kg/injection, schedule: Q01DX009 (ip), vehicle: other 106 % of control | dose: 8.0 mg/kg/injection, schedule: Q01DX015 (ip), vehicle: carboxymethylcellulose (CMC) 113 % of control | dose: 8.0 mg/kg/injection, schedule: Q03HX008 (ip), vehicle: other 104 % of control | dose: 8.0 mg/kg/injection, schedule: Q03HX016 (ip), vehicle: other 103 % of control | dose: 8.0 mg/kg/injection, schedule: Q03HX024 (ip), vehicle: other 108 % of control | dose: 10.0 mg/kg/injection, schedule: Q01DX001 (ip), vehicle: carboxymethylcellulose (CMC) 100 % of control | dose: 12.5 mg/kg/injection, schedule: Q01DX001 (ip), vehicle: saline 104 % of control | dose: 12.5 mg/kg/injection, schedule: Q01DX009 (ip), vehicle: saline 124 % of control | dose: 12.5 mg/kg/injection, schedule: Q04DX003 (ip), vehicle: saline 110 % of control | dose: 16.0 mg/kg/injection, schedule: Q01DX001 (ip), vehicle: other 107 % of control | dose: 16.0 mg/kg/injection, schedule: Q01DX009 (ip), vehicle: other 120 % of control | dose: 16.0 mg/kg/injection, schedule: Q03HX008 (ip), vehicle: other 112 % of control | dose: 16.0 mg/kg/injection, schedule: Q03HX016 (ip), vehicle: other 110 % of control | dose: 16.0 mg/kg/injection, schedule: Q03HX024 (ip), vehicle: other 122 % of control | dose: 16.0 mg/kg/injection, schedule: Q04DX003 (ip), vehicle: other 100 % of control | dose: 16.0 mg/kg/injection, schedule: Q08DX002 (ip), vehicle: other 97 % of control | dose: 20.0 mg/kg/injection, schedule: Q01DX001 (ip), vehicle: carboxymethylcellulose (CMC) 112 % of control | dose: 25.0 mg/kg/injection, schedule: Q01DX001 (ip), vehicle: saline 114 % of control | dose: 25.0 mg/kg/injection, schedule: Q01DX009 (ip), vehicle: saline 117 % of control | dose: 25.0 mg/kg/injection, schedule: Q04DX003 (ip), vehicle: saline 110 % of control | dose: 32.0 mg/kg/injection, schedule: Q01DX001 (ip), vehicle: other 102 % of control | dose: 32.0 mg/kg/injection, schedule: Q01DX009 (ip), vehicle: other 123 % of control | dose: 32.0 mg/kg/injection, schedule: Q01DX015 (ip), vehicle: carboxymethylcellulose (CMC) 121 % of control | dose: 32.0 mg/kg/injection, schedule: Q04DX003 (ip), vehicle: other 96 % of control | dose: 32.0 mg/kg/injection, schedule: Q08DX002 (ip), vehicle: other 96 % of control | dose: 40.0 mg/kg/injection, schedule: Q01DX001 (ip), vehicle: carboxymethylcellulose (CMC) 112 % of control

CCC(C(=O)O)c1ccccc1 (centres undefined)
inactive: dose: 50.0 mg/kg/injection, schedule: Q01DX009 (ip), vehicle: saline 93 % of control | dose: 100.0 mg/kg/injection, schedule: Q01DX009 (ip), vehicle: saline 97 % of control | dose: 100.0 mg/kg/injection, schedule: Q04DX003 (ip), vehicle: saline 89 % of control | dose: 200.0 mg/kg/injection, schedule: Q01DX009 (ip), vehicle: saline 90 % of control | dose: 200.0 mg/kg/injection, schedule: Q04DX003 (ip), vehicle: saline 90 % of control | dose: 400.0 mg/kg/injection, schedule: Q04DX003 (ip), vehicle: saline 95 % of control

COc1ccc(C(=O)/C=C/c2ccc(Cl)cc2)cc1
inactive: [3] 100 % of control | [4] 95 % of control | [5] 92 % of control
